# Results published in US10358453B2, “Antiviral compounds” (priority 2015, dated 2019).
# Where two headings read alike, the source gives them in different places.
# Key:
# [1] = Cytotoxicity determination (CCK-8, without addition of virus); format: cell-based; details: human, HEp-2 cells (uninfected), no virus, Table C = greater than 100 μM, Table D = equal to or less than 100 μM and greater than 10 μM
# Method: CPE reduction assays are performed as described by Sidwell and Huffman et al., Appl. Microbiol. (1971) 22(5):797-801 with slight modifications. HEp-2 cells (ATCC#, CCL-23) are seeded at a density of 1,500 cells/30 μL/well into the 384-well cell plate(s) (Corning#3701) one day prior to the assay. Compounds are added into 384-well cell plates by Labcyte POD 810 Plate Assembler system. Each of the test compounds is provided to duplicate wells of a 384-well cell plate at final concentrations starting from 100 μM or 1 μM using 1/3 stepwise dilutions for 9 points. Quick-thaw Respiratory Syncytial Virus (RSV) long strain (ATCC#VR-26) stock in a 37° C. water bath. Place on ice until ready to use. Viruses are diluted to the concentration of 100 TCID50/30 μL with medium and 30 μl diluted RSV are added into related wells of 384-well cell plates. For each plate, sixteen wells are set aside as uninfected, untreated cell controls (CC), and nine wells per test plate receive virus only as a control for virus replication (VC). The final DMSO concentration of all wells is 1%. Place the plates at 37° C., 5% CO2 for 5 days.
# In order to determine the compound cytotoxicity, in parallel, each of the compounds is applied to duplicate wells in a 384-well cell plate at serial final concentrations starting from 100 μM using ½ stepwise dilutions for 7 points without addition of virus. Incubate the cells at 37° C., 5% CO2 for 5 days. Add 6 μL CCK-8 into each well and incubate in a CO2 incubator at 37° C. for 3-4 h. Read the plates to obtain the optical densities which are used to calculate 50% cytotoxicity concentration (CC50).
# recombinant RSV complex = recombinant RSV complex (Human respiratory syncytial virus A, UniProt P28887); assay: RSV polymerase inhibition assay; format: biochemical; details: 2 h at 30° C., Table E = <1 μM, Table F = <50 μM
# recombinant RSV complex, sequence (P28887 whole entry): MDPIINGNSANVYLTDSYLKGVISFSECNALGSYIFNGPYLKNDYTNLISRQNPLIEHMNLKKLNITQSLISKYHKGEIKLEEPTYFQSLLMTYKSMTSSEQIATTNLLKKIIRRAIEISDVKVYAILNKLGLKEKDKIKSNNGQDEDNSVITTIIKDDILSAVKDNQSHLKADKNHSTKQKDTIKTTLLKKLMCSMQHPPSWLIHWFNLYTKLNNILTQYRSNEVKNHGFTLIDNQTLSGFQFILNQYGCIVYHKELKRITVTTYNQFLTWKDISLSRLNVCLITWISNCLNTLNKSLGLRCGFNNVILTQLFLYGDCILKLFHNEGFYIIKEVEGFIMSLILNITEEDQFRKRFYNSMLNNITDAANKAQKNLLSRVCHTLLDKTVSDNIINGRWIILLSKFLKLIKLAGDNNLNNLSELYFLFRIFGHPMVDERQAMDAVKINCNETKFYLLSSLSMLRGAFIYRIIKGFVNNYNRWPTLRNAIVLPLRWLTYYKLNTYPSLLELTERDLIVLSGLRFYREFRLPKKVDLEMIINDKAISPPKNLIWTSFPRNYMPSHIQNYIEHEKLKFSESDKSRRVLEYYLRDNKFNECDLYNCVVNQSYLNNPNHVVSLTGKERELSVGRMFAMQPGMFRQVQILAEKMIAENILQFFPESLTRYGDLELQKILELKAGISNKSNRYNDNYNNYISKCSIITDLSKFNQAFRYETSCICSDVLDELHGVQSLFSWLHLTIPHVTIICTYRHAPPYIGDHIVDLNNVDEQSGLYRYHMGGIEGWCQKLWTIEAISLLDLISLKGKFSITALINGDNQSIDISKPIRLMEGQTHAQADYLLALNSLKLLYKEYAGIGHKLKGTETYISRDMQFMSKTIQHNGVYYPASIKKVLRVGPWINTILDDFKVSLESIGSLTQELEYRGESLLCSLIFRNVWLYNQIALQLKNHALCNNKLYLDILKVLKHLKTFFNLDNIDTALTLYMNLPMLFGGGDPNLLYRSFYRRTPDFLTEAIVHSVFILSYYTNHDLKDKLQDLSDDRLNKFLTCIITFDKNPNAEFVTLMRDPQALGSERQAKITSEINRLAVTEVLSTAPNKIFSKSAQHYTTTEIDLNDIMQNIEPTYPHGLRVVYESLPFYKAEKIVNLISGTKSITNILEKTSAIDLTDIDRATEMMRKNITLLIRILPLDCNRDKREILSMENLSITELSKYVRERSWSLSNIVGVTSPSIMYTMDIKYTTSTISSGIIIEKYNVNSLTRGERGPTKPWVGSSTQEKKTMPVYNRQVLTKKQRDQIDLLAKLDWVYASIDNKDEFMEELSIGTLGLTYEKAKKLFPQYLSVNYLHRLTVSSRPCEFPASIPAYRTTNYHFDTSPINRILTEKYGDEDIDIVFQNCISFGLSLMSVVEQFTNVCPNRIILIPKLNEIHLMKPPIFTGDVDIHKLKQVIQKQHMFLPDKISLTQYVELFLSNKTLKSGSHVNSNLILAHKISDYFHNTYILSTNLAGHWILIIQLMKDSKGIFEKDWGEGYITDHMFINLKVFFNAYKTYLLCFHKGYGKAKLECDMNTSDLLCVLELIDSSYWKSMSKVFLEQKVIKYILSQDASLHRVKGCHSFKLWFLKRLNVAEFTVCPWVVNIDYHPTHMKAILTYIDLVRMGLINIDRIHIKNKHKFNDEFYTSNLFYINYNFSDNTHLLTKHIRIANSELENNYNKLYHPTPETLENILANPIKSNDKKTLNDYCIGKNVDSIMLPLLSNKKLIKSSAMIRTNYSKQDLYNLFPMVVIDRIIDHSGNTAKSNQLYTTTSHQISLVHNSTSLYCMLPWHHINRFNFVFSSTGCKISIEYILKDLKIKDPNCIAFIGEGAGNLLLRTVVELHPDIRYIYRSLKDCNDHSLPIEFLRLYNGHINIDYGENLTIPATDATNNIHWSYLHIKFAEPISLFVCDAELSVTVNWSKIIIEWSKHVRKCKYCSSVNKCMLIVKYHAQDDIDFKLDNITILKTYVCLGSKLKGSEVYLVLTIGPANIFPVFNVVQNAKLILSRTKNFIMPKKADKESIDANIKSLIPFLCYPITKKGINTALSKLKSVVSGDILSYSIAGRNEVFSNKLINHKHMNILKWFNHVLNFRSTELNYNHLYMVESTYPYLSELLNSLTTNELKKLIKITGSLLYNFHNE
# recombinant RSV complex, sequence (P03421 whole entry, further chain): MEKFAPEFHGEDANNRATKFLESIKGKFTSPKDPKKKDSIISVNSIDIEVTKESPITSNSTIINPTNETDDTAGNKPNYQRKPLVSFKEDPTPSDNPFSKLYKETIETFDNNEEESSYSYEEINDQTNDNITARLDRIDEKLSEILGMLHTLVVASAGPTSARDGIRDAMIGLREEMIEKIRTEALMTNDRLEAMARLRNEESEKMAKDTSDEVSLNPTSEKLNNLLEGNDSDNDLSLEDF
# Method: Standard RSV polymerase assays were conducted in the presence of 10 nM recombinant RSV complex in a reaction buffer containing Tris-HCl pH7.5, 6 mM MgCl2, and other additives and substrates including RNA oligonucleotides and radionucleotides. Standard reactions were incubated in 96-well plate format for 2 h at 30° C., in the presence of increasing concentration of inhibitor. The reaction was stopped with 90 μL of 0.1M EDTA, and the reaction product was transferred to a “reading” 96-well plate. After washing of the plate, radiolabeled RNA products were detected according to standard procedures with a Trilux Topcount scintillation counter. The compound concentration at which the enzyme-catalyzed rate was reduced by 50% (IC50) was calculated by fitting the data to a non-linear regression (sigmoidal).
# [2] = test system: RSV subgenomic replicon 395 HeLa and APC126; assay: RSV subgenomic replicon assay (Renilla luciferase); format: cell-based; details: human respiratory syncytial virus; RSV replicon cells (395 HeLa 7 days or APC126 3 days); Table G = less than 1 μM, Table H = equal to or higher than 1 μM and less than 50 μM
# Description: The RSV subgenomic replicon 395 HeLa and APC126 were licensed from Apath (Brooklyn, N.Y.) and were originally developed by Dr. Mark Meeples of Center for Vaccines & Immunity, the Research Institute at Nationwide Children's Hospital in Columbus, Ohio. To generate subgenomic RSV replicon, three glycoprotein genes, those for SH, G, and F, from a full-length recombinant GFP-expressing (rg) RSV antigenomic cDNA were deleted. In their place, a blasticidin S deaminase (bsd) gene was inserted. Through multiple steps, the RSV replicon was established in HeLa cells (395 Hela) or BHK cells (APC126). Both 395 HeLa and APC126 cells were cultured in Dulbecco's Modified Eagle Medium (DMEM) containing 4500 mg/L D-glucose, L-glutamine, and 110 mg/L sodium pyruvate (Invitrogen, Cat. #11995-040). The medium was further supplemented with 10% (v/v) fetal bovine serum (FBS) (Mediatech, Cat. #35-010-CV), 1% (v/v) penicillin/streptomycin (Mediatech, Cat. #30-002-CI), and 10 μg/mL of Blasticidin (BSD) (Invivogen, Cat. code ant-bl-1). Cells were maintained at 37° C. in a humidified 5% CO2 atmosphere.
# Determination of 50% inhibitory concentration (EC50), 90% inhibitory concentration (EC90) and 50% cytotoxic concentration (CC50) in RSV replicon cells were performed by the following procedure. On the first day, 5000 RSV replicon cells per well were plated in a 96-well plate. On the following day, compounds to be tested were solubilized in 100% DMSO to 100X the desired final testing concentration. Each compound was serially diluted (1:3) up to 9 distinct concentrations. Compounds in 100% DMSO were reduced to 10% (v/v) DMSO by diluting 1:10 in cell culture media. A 10 μL sample of the compounds diluted to 10% (v/v) DMSO with cell culture media was used to treat the RSV replicon cells in 96-well format. The final DMSO concentration was 1% (v/v). Cells were incubated with compounds for 7 days (for 395Hela) or 3 days (for APC126) at 37° C. in a 5% CO2 atmosphere. In each assay, positive control that was previously characterized in the RSV replicon assay was included.
# The Renilla Luciferase Assay System (Promega, Cat. #E2820) was used to measure anti-RSV replicon activity. Assay plates were set up as stated above. Luminescence was recorded using a Perkin Elmer multilabel counter Victor3V. EC50, the concentration of the drug required for reducing RSV replicon RNA by 50% in relation to the untreated cell control value, was calculated from the plot of percentage reductions of the […] against the drug concentrations using the Microsoft Excel forecast function.
# [3] = 10 nM recombinant RSV complex, read-out: IC50
# [4] = IC50, 10 nM recombinant RSV complex
Structure (SMILES),CC50 at 5 days [1] [µM],IC50 (recombinant RSV complex; [3]) [µM],EC50 [2] [µM],IC50 (recombinant RSV complex; [4]) [µM]
C[C@@]1(N)COc2c1cc([C@@](O)(CNC(=O)c1ccc(OC3CC3)c(OCCO)c1)C(F)(F)F)nc2-c1ccc(F)cc1 [Compound 60],10 to 100,< 1,< 1,
C[C@@]1(N)CNc2c1cc([C@](O)(CNC(=O)c1ccc(OCCO)c(OC3CC3)c1)C(F)(F)F)nc2-c1ccc(F)cc1 [Compound 61],10 to 100,< 1,< 1,
C[C@@]1(N)CNc2c1cc([C@](O)(CNC(=O)c1ccc(OC3CC3)c(OC3CC3)c1)C(F)(F)F)nc2-c1ccc(F)cc1 [Compound 62],10 to 100,< 50,< 1,
COc1cc(C(=O)NC[C@@](O)(c2cc3c(c(-c4ccc(F)cc4)n2)OC[C@@]3(C)N)C(F)(F)F)cc(OC)c1CCCO [Compound 65],10 to 100,< 1,< 1,
COc1cc(C(=O)NC[C@@](O)(c2cc3c(c(-c4ccc(F)cc4)n2)OC[C@@]3(C)N)C(F)(F)F)cc(OC)c1OCCO [Compound 67],> 100,,< 1,< 50
COc1cc(OCCO)cc(C(=O)NC[C@@](O)(c2cc3c(c(-c4ccc(F)cc4)n2)OC[C@@]3(C)N)C(F)(F)F)c1 [Compound 68],10 to 100,< 1,< 1,
COc1cc(C(=O)NC[C@@](O)(c2cc3c(c(-c4ccc(F)cc4)n2)NC[C@@]3(C)N)C(F)(F)F)ccc1OC[C@@H](C)O [Compound 69],10 to 100,< 1,< 1,
COc1cc(C(=O)NC[C@@](O)(c2cc3c(c(-c4ccc(F)cc4)n2)NC[C@@]3(C)N)C(F)(F)F)ccc1OCC(N)=O [Compound 72],> 100,< 1,< 1,
COc1cc(C(=O)NCC(O)(c2cc3c(c(-c4ccc(F)cc4)n2)CCC3(C)N)C(F)(F)F)ccc1OCCO (stereo not drawn) [Compound 73],10 to 100,< 1,< 1,
COc1cc(C(=O)NC[C@@](O)(c2cc3c(c(-c4ccc(F)cc4)n2)NC[C@@]3(C)N)C(F)(F)F)cc2cccnc12 [Compound 74],10 to 100,< 1,< 1,
COc1cc(C(=O)NC[C@@](O)(c2cc3c(c(-c4ccc(F)cc4)n2)NC[C@@]3(C)N)C(F)(F)F)ncc1OCCO [Compound 75],10 to 100,< 1,< 1,
C[C@@]1(N)CNc2c1cc([C@](O)(CNC(=O)c1ccc3c(c1)CC(=O)N3)C(F)(F)F)nc2-c1ccc(F)cc1 [Compound 76],10 to 100,< 1,< 1,
COc1cc(C(=O)NC[C@@](O)(c2cc3c(c(-c4ccc(F)cc4)n2)N(C)C[C@@]3(C)N)C(F)(F)F)ccc1OCCO [Compound 79],10 to 100,< 1,< 1,
C[C@@]1(N)COc2c1cc([C@](O)(CNC(=O)c1cc(OCCO)c3ncccc3c1)C(F)(F)F)nc2-c1ccc(F)cc1 [Compound 80],10 to 100,< 1,< 1,
C[C@@]1(N)CNc2c1cc([C@](O)(CNC(=O)c1cc(OCCO)c3ncccc3c1)C(F)(F)F)nc2-c1ccc(F)cc1 [Compound 81],10 to 100,< 1,< 1,
C[C@@]1(N)CNc2c1cc([C@](O)(CNC(=O)c1ccc3c(c1)CC(=O)N3CCO)C(F)(F)F)nc2-c1ccc(F)cc1 [Compound 82],> 100,,< 1,< 1
COc1cc(C(=O)NC[C@@](O)(c2cc3c(c(-c4ccc(F)cc4)n2)NC[C@@]3(C)N)C(F)(F)F)cc2cc[nH]c12 [Compound 83],10 to 100,< 1,< 1,
COc1cc(C(=O)NC[C@@](O)(c2cc3c(c(-c4ccc(F)cc4)n2)OC[C@@]3(C)N)C(F)(F)F)cc2ccc(CO)nc12 [Compound 84],10 to 100,< 1,< 1,
COc1cc(C(=O)NC[C@@](O)(c2cc3c(c(-c4ccc(F)cc4)n2)OC[C@@]3(C)NC(C)=O)C(F)(F)F)ccc1OC[C@@H](C)O [Compound 85],10 to 100,< 1,< 1,
COc1cc(C(=O)NCC(O)(c2cc(C(C)(N)C3CC3)cc(-c3ccc(F)cc3)n2)C(F)(F)F)ccc1OC[C@@H](C)O (stereo partly drawn) [Compound 88],10 to 100,< 1,< 1,
COc1cc(C(=O)NC[C@@](O)(c2cc3c(c(-c4ccc(F)cc4)n2)OC[C@@]3(C)N)C(F)(F)F)cc2ccc(C(C)(C)O)nc12 [Compound 90],10 to 100,< 1,< 1,
COc1cc(C(=O)NC[C@@](O)(c2cc3c(c(-c4ccc(F)cc4)n2)OC[C@@]3(C)N)C(F)(F)F)cc2ccc(C(C)O)nc12 (stereo partly drawn) [Compound 91],10 to 100,< 1,< 1,
COc1cc(C(=O)NCC(O)(c2cc3c(c(-c4ccc(F)cc4)n2)OCCC3(N)C2CC2)C(F)(F)F)ccc1OC[C@@H](C)O (stereo partly drawn) [Compound 92],10 to 100,< 1,< 1,
COc1nc(C(=O)NC[C@@](O)(c2cc3c(c(-c4ccc(F)cc4)n2)OC[C@@]3(C)N)C(F)(F)F)cc2c1NC(=O)C2 [Compound 93],10 to 100,< 50,1 to 50,
C[C@@]1(N)COc2c1cc([C@](O)(CNC(=O)c1cc(OC(F)F)c3[nH]ccc3c1)C(F)(F)F)nc2-c1ccc(F)cc1 [Compound 94],10 to 100,< 1,< 1,
COc1cc(C(=O)NC[C@@](O)(c2cc3c(c(-c4ccc(F)cc4)n2)OC[C@@]3(C)N)C(F)(F)F)cc2nc[nH]c12 [Compound 95],10 to 100,< 1,< 1,
C[C@@]1(N)COc2c1cc([C@](O)(CNC(=O)c1cc3c(c(OC(F)F)c1)NC(=O)C3)C(F)(F)F)nc2-c1ccc(F)cc1 [Compound 98],10 to 100,< 1,< 1,
COc1cc(C(=O)NC[C@](O)(c2cc3c(c(-c4ccc(F)cc4)n2)NCC[C@]3(C)N)C(F)(F)F)ccc1OC[C@@H](C)O [Compound 101],10 to 100,< 1,< 1,
